The record followed here is patent US20260225997A1, “IONIZABLE AMINE LIPIDS” (Intellia Therapeutics, Inc., priority 2018, published 2026).

For data set [1], the system named is TTR. In words: TTR editing in mouse liver by NGS after i.v. LNP delivery of Cas9 mRNA and sgRNA. In kind it is in vivo. Conditions: CD-1 female mice, 7 days post-dose, G282 1:1. The gist of the method: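 Cas9 mRNA and chemically modified sgRNA were co-formulated in LNPs made of an ionizable amine lipid, DSPC, cholesterol and PEG-2k-DMG at a 6.0 N:P ratio. CD-1 female mice aged 6-10 weeks received tail-vein injections of 0.2 mL. Liver genomic DNA was then amplified around the target site and sequenced on an Illumina MiSeq, with editing calculated as indel-containing reads over total reads.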

Data set [2] can be described thus: LNP average particle size and polydispersity by dynamic light scattering (Malvern Zetasizer). Format: physicochemical. As to conditions: G282 1:1. An excerpt: The LNPs have a size of about 1 to about 1,000 nm, about 10 to about 500 nm, about 20 to about 500 nm, in a sub-embodiment about 50 to about 400 nm, in a sub-embodiment about 50 to about 300 nm, in a sub-embodiment about 50 to about 200 nm, and in a sub-embodiment about 50 to about 150 nm, and in another sub-embodiment about 60 to about 120 nm. Preferably, the LNPs have a size from about 60 nm to about 100 nm. The average sizes (diameters) of the fully formed LNP, may be measured by dynamic light scattering on a Malvern Zetasizer. The LNP sample is diluted in phosphate buffered saline (PBS) so that the count rate is approximately 200-400 kcps. The data is presented as a weighted average of the intensity measure.
The LNPs disclosed herein have a size (e.g. Z-average diameter) of about 1 to about 250 nm. In some embodiments, the LNPs have a size of about 10 to about 200 nm. In further embodiments, the LNPs have a size of about 20 to about 150 nm. In some embodiments, the LNPs have a size of about 50 to about 150 nm. In some embodiments, the LNPs have a size of about 50 to about 100 nm. In some embodiments, the LNPs have a size of about 50 to about 120 nm. In some embodiments, the LNPs have a size of about 60 to about 100 nm. In some embodiments, the LNPs have a size of about 75 to about 150 nm. In some embodiments, the LNPs have a size of about 75 to about 120 nm. In some embodiments, the LNPs have a size of about 75 to about 100 nm. Unless indicated otherwise, all sizes referred to herein are the average sizes (diameters) of the fully formed nanoparticles, as measured by dynamic light scattering on a Malvern Zetasizer. The nanoparticle sample is diluted in phosphate buffered saline (PBS) so that the count rate is approximately 200-400 kcps. The data is presented as a weighted-average of the intensity measure (Z-average diameter).
Dynamic Light Scattering (“DLS”) is used to characterize the polydispersity index (“pdi”) and size of the LNPs of the present disclosure. DLS measures the scattering of light that results from subjecting a sample to a light source. PDI, as determined from DLS measurements, represents the distribution of particle size (around the mean particle size) in a population, with a perfectly uniform population having a PDI of zero.
LNP compositions are analyzed for average particle size, polydispersity index (pdi), total RNA content, encapsulation efficiency of RNA, and zeta potential. LNP compositions may be further characterized by lipid analysis, AF4-MALS, NTA, and/or cryo-EM. Average particle size and polydispersity are measured by dynamic light scattering (DLS) using a Malvern Zetasizer DLS instrument. LNP samples were diluted with PBS buffer prior to being measured by DLS. Z-average diameter which is an intensity-based measurement of average particle size was reported along with number average diameter and pdi. A Malvern Zetasizer instrument is also used to measure the zeta potential of the LNP. Samples are diluted 1:17 (50 μL into 800 μL) in 0.1×PBS, pH 7.4 prior to measurement.

A short description of data set [3]: pKa measurement of unformulated amine lipid (fluorescence, method of Jayaraman et al.). In kind it is physicochemical. As to conditions: 100 μM in 0.1 M phosphate buffer pH 4.5-9.0. The procedure: The pKa of each amine lipid was determined according to the method in Jayaraman, et al. (Angewandte Chemie, 2012) with the following adaptations. […] Lipid was diluted to 100 μM in 0.1 M phosphate buffer (Boston Bioproducts) where the pH ranged from 4.5-9.0. Fluorescence intensity was measured using excitation and emission wavelengths of 321 nm and 448 nm.

Data set [4] in a line: RNA encapsulation efficiency of LNP (Ribogreen fluorescence assay). Conditions: G282 (TTR) 1:1 w/w, N:P 6.0. In kind it is physicochemical. The procedure:
A fluorescence-based assay (Ribogreen®, ThermoFisher Scientific) is used to determine total RNA concentration and free RNA. Encapsulation efficiency is calculated as (Total RNA−Free RNA)/Total RNA. LNP samples are diluted appropriately with 1× TE buffer containing 0.2% Triton-X 100 to determine total RNA or 1× TE buffer to determine free RNA. Standard curves are prepared by utilizing the starting RNA solution used to make the compositions and diluted in 1× TE buffer+/−0.2% Triton-X 100. Diluted RiboGreen® dye (according to the manufacturer's instructions) is then added to each of the standards and samples and allowed to incubate for approximately 10 minutes at room temperature, in the absence of light. A SpectraMax M5 Microplate Reader (Molecular Devices) is used to read the samples with excitation, auto cutoff and emission wavelengths set to 488 nm, 515 nm, and 525 nm respectively. Total RNA and free RNA are determined from the appropriate standard curves.
Encapsulation efficiency is calculated as (Total RNA−Free RNA)/Total RNA. The same procedure may be used for determining the encapsulation efficiency of a DNA-based cargo component. For single-strand DNA Oligreen Dye may be used, and for double-strand DNA, Picogreen Dye.

Data set [5] has as its system TTR. In words: Transthyretin (TTR) ELISA analysis of mouse serum after LNP dosing. Format: in vivo. Conditions: 7 days post-dose, G282 1:1; for inhibition in vivo at 0.03 mg/kg: read-out: Serum TTR (% KD). The gist of the method:
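Female CD-1 mice aged 6-10 weeks were grouped by body weight and given LNPs by lateral tail vein injection (0.2 mL per animal, about 10 mL per kilogram). Mice were bled by cardiac puncture under isoflurane into serum separator tubes. Serum was diluted 10,000-fold for the 0.1 mpk dose, and total TTR was quantified with a Mouse Prealbumin (Transthyretin) ELISA Kit following the kit directions.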
In general terms: An ELISA detects its analyte on a solid surface through an enzyme-linked reagent.

The mark [6] stands for this setting: Example 64: Dose 0.03 mpk (table) i.v.
Setting [7] is: Mus musculus, iv, 168 h, Example 64: Dose 0.03 mpk (table) i.v.

The structures appear in SMILES notation.

For orientation: pKa means the pH at which an ionisable group is half protonated. A higher pKa goes with a group that holds its proton tightly. In the case of `CCCCCCCCCOC(=O)CCCCCCCN(CCO)CCCCCCCCCC(CCCCCCCC)CCCCCCCC` [Compound 26, nonyl 8-((2-hydroxyethyl)(10-octyloctadecyl)amino)octanoate, reference compound], the “Editing Mean % Indel” value in data set [1] (Example 61: 0.1 mpk i.v.) is 2.6%. Further, in data set [2] (Table 20, Example 61: LNP), the “Num Ave Size (nm)” value is reported as 48.37 nm, the PDI was 0.07 and the “Z-Ave Size (nm)” value is 63.25 nm. This compound also yielded a pKa in data set [3] of 6.19. Besides, the “Encapsulation (%)” value in data set [4] (Table 20, Example 61: LNP) is given as 99%. The “Serum TTR” value in data set [5] (Example 61: 0.1 mpk i.v.) amounted to 979 µg/mL. In addition, the response vs control in vivo at 0.1 mg/kg in data set [5] (Mus musculus, iv, 168 h, Example 61: 0.1 mpk i.v., read-out: Serum TTR % TSS) came out at 76%.
Regarding `CCCCCCCCCOC(=O)CCCCCCCN(CCCCCCC(OCCCCCCCC)OCCCCCCCC)CCCOC(=O)NC` [Compound 40, nonyl 8-((7,7-bis(octyloxy)heptyl)(3-((methylcarbamoyl)oxy)propyl)amino)octanoate], in data set [1] (setting [6]), the “Editing Mean % Indel” value is 27.5%. In addition, in data set [2] (Table 26, Example 64: LNP), the “Num Ave Size (nm)” value is on record as 64 nm, the PDI is 0.06 and the “Z-Ave Size (nm)” value stood at 83 nm. In data set [3], this compound returned a pKa of 5.71. Besides, the “Encapsulation (%)” value in data set [4] (Table 26, Example 64: LNP) is recorded as 96%. Also, the “Serum TTR” value in data set [5] (setting [6]) was 417.0 µg/mL. Also, in data set [5] (setting [7]), the inhibition in vivo at 0.03 mg/kg was found to be 27.2%.
`CCCCCCCCCOC(=O)CCCCCCCN(CCCCCCC(OCCCCCCCC)OCCCCCCCC)CCCNC(=O)OC` [Compound 43, nonyl 8-((7,7-bis(octyloxy)heptyl)(3-((methoxycarbonyl)amino)propyl)amino)octanoate]: the “Editing Mean % Indel” value in data set [1] (setting [6]) is reported as 8.6%. For the same compound, in data set [2] (Table 26, Example 64: LNP), the “Num Ave Size (nm)” value came to 56 nm, the PDI is recorded as 0.05 and the “Z-Ave Size (nm)” value is 74 nm. In data set [3], the pKa came out at 6.02. Moreover, in data set [4] (Table 26, Example 64: LNP), the “Encapsulation (%)” value is on record as 94%. Besides, the “Serum TTR” value in data set [5] (setting [6]) is 619.2 µg/mL. For the same compound, the inhibition in vivo at 0.03 mg/kg in data set [5] (setting [7]) is -8.1%.
As for `CCCCCCCCCOC(=O)CCCCCCCN(CCCCCCC(OCCCCCCCC)OCCCCCCCC)CCNC(=O)OC` [Compound 44, nonyl 8-((7,7-bis(octyloxy)heptyl)(2-((methoxycarbonyl)amino)ethyl)amino)octanoate], the “Editing Mean % Indel” value in data set [1] (setting [6]) is listed as 7.9%. Besides, in data set [2] (Table 26, Example 64: LNP), the “Num Ave Size (nm)” value is 92 nm, the PDI was determined as 0.25 and the “Z-Ave Size (nm)” value was found to be 185 nm. This compound gave a pKa in data set [3] of 5.62. Moreover, the “Encapsulation (%)” value in data set [4] (Table 26, Example 64: LNP) turned out to be 59%. Further, in data set [5] (setting [6]), the “Serum TTR” value turned out to be 603.9 µg/mL. Further, in data set [5] (setting [7]), the inhibition in vivo at 0.03 mg/kg is -5.5%.
Consider `CCCCCCCCCOC(=O)CCCCCCCN(CCCCCCC(OCCCCCCCC)OCCCCCCCC)CCCNC(=O)NC` [Compound 46, nonyl 8-((7,7-bis(octyloxy)heptyl)(3-(3-methylureido)propyl)amino)octanoate], for which the “Editing Mean % Indel” value in data set [1] (setting [6]) is 8.7%. In data set [2] (Table 26, Example 64: LNP), the “Num Ave Size (nm)” value came to 86 nm, the PDI is 0.03 and the “Z-Ave Size (nm)” value was 104 nm. The pKa in data set [3] was determined as 7.64. Further, in data set [4] (Table 26, Example 64: LNP), the “Encapsulation (%)” value was 98%. In data set [5] (setting [6]), the “Serum TTR” value worked out at 514.6 µg/mL. Moreover, the inhibition in vivo at 0.03 mg/kg in data set [5] (setting [7]) stood at 10.1%.
